{"source": "patent US7256252B1", "about": "“Methods for detecting cell apoptosis” (Cephalon, Inc., priority 1996, dated 2007)", "key": {"[1]": {"system": "Hippocampal neurons", "assay_type": "cell-based", "settings": "hippocampal neurons in primary culture, 3-nitropropionic acid applied", "description": "Similar results were obtained with other cells. Hippocampal neurons grown in primary culture were stimulated to die by application of the neurotoxic metabolic poison 3-nitropropionic acid."}, "[2]": {"system": "HL60 cells", "assay": "Etoposide-triggered apoptotic proteolysis in HL60 cells (immunoblot)", "assay_type": "cell-based, human", "settings": "17 micromolar etoposide, 2 or 4 hours", "protocol": "HL60 cells (obtained from the American Type Culture Collection, Rockville, Md.) were cultured using published techniques (Collins et al., Nature, 270:347-349 (1977), incorporated herein by reference). Cultures of cells were incubated with either 17 micromolar etoposide (from a 1000× stock solution made in dimethylsulfoxide) to trigger apoptosis or a vehicle. After either 2 or 4 hours, cells were lysed in ice cold 25 millimolar (mM) HEPES (pH 7.5), 5 mM MgCl2, 0.1% Triton X-100 and a cocktail of protease inhibitors (1 mM EGTA, 10 micrograms per ml of aprotinin, 10 micrograms per ml of leupeptin, 7 micrograms per ml of pepstatin A, 1 mM phenylmethylsulfonylfluoride (PMSF). The resulting cell lysates were subjected to SDS-polyacrylamide gel electrophoresis on 4-20% Tris-glycine gradient gels, and the separated proteins transferred to nitrocellulose membranes by Western blotting. The blots were immunostained with Ab127 ( 1/5,000) followed by incubation with alkaline phosphatase conjugated goat anti-rabbit IgG (Bio-Rad, Burlingame, Calif.) and visualized as described previously (Roberts-Lewis et al., J. Neurosci. 14:3934-3944 (1994), incorporated herein by reference)."}}, "data": [{"smiles": "O=C(O)CC[N+](=O)[O-]", "note": "[3-nitropropionic acid]", "values": [{"measurement": "apoptotic neurons by Hoechst 33258 nuclear stain", "setting": "[1]", "value": "presence of apoptotic neurons"}]}, {"smiles": "COc1cc([C@@H]2c3cc4c(cc3[C@@H](O[C@@H]3O[C@@H]5CO[C@@H](C)O[C@H]5[C@H](O)[C@H]3O)[C@H]3COC(=O)[C@H]23)OCO4)cc(OC)c1O", "note": "[etoposide]", "values": [{"measurement": "level of about 30 kDa immunoreactive polypeptide", "setting": "[2]", "value": "increased with increasing time of cell exposure"}]}]}
